Reference: US9605004B2, “Chemical compounds” (SYNGENTA LIMITED, priority 2013, dated 2017)

How the values were obtained:
[1] = test system: a variety of test species; assay: Pre-emergence herbicidal activity (Example 8a, Table 2); format: in vivo; design: key: 0 = no damage to plant, 5 = total damage to plant; conditions: application pre-emergence, rate 1000 g/ha, evaluated after 13 days
Outline: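 Compounds are applied pre-emergence as an aqueous spray, formulated in 50:50 acetone/water containing 0.5% Tween 20, to pots sown one day earlier. Plants grow in a controlled glasshouse and are scored 13 days later for damage from 0 to 5.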

[2] = test system: a variety of test species; assay: Post-emergence herbicidal activity (Example 8b, Table 3); format: in vivo; conditions: application post-emergence, rate 1000 g/ha, evaluated after 13 days, scale 0-5; for Herbicidal damage score, ABUTH: Abutilon theophrasti; for Herbicidal damage score, ALOMY: Alopecurus myosuroides; for Herbicidal damage score, AMARE: Amaranthus retroflexus; for Herbicidal damage score, ECHCG: Echinochloa crus-galli; for Herbicidal damage score, SETFA: Setaria faberi; for Herbicidal damage score, ZEAMX: Zea mays
Outline: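 Pot-grown seedlings sprayed 8 days after sowing with active ingredient in acetone/water (50:50) plus 0.5% Tween 20. Glasshouse at 24/16 °C day/night, 14 h light, 65% humidity, watered twice daily. Damage scored after 13 days on a 0–5 scale (5 = total damage, 0 = none).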

Structure (SMILES)	Pre-emergence herbicidal activity, damage score ABUTH [1]	Pre-emergence herbicidal activity, damage score ALOMY [1]	Pre-emergence herbicidal activity, damage score AMARE [1]	Pre-emergence herbicidal activity, damage score ECHCG [1]	Pre-emergence herbicidal activity, damage score SETFA [1]	Pre-emergence herbicidal activity, damage score ZEAMX [1]	Herbicidal damage score, ABUTH [2]	Herbicidal damage score, ALOMY [2]	Herbicidal damage score, AMARE [2]	Herbicidal damage score, ECHCG [2]	Herbicidal damage score, SETFA [2]	Herbicidal damage score, ZEAMX [2]
C/C=C/c1cc(N2C(=O)C(Cl)=C(C)C2O)nn1C (centres unmarked) [Compound B21]	2	3	4	4	3	0	4	2	4	4	5	0
CC(C)=CCc1cc(N2C(=O)C(Cl)=C(C)C2O)nn1C (centres unmarked) [Compound B22]	0	0		0	0	0	3	0	0	2		2
C=CCC(C)(C)c1cc(N2C(=O)C(Cl)=C(C)C2O)nn1C (centres unmarked) [Compound B23]		4		4		4						4
CC1=C(Cl)C(=O)N(c2cc(Cc3ccccc3)n(C)n2)C1O (centres unmarked) [Compound B24]	3	3	3	3	3	0	5	4	5	5	5	1
CC1=C(Cl)C(=O)N(c2cc(C#CC(C)(C)C)n(C)n2)C1O (centres unmarked) [Compound B25]	0	0	2	0	0	0	3	1	3	1	1	0
CC1=C(Cl)C(=O)N(c2cc(CCC(C)C)n(C)n2)C1O (centres unmarked) [Compound B27]	3	1	5	4	3	2	3	1	2	5	5	0
CCC1=C(Cl)C(=O)N(c2ccn(C)n2)C1O (centres unmarked) [Compound B28]	0	0	0	0	0	0	0	0	0	0	0	0
CC1=C(Cl)C(=O)N(c2cc(C#CC(C)C)n(C)n2)C1O (centres unmarked) [Compound B29]	0	0	2	0	0	0	0	0	0	2	2	0
CC1=C(Cl)C(=O)N(c2cc(C#CCC(C)C)n(C)n2)C1O (centres unmarked) [Compound B30]	0	0	2	0	0	0	3	0	3	0	2	0
CCOC(C)(CC)c1cc(N2C(=O)C(Cl)=C(C)C2O)nn1C (centres unmarked) [Compound B32]	5	4	5	5	5	4	5	5	5	5	5	4
CCC(C)c1cc(N2C(=O)C(Cl)=C(C)C2O)nn1C (centres unmarked) [Compound B33]	5	4	5	5	5	4	5	5	5	5	5	5
CC#Cc1cc(N2C(=O)C(Cl)=C(C)C2O)nn1C (centres unmarked) [Compound B35]	3	1	5	4	3	0	4	1	1	4	4	0
CSc1cc(N2C(=O)C(Cl)=C(C)C2O)nn1C (centres unmarked) [Compound B36]	5	3	5	5	5	2	5	4	5	5	5	5
CC1=C(Cl)C(=O)N(c2cc(S(C)(=O)=O)n(C)n2)C1O (centres unmarked) [Compound B38]	5	4	5	5	5	4	5	5	5	5	5	5
CC1=C(Cl)C(=O)N(c2cc(C(C)C(F)(F)F)n(C)n2)C1O (centres unmarked) [Compound B39]	5	4	5	5	5	4	5	5	5	5	5	5
C/C=C\c1cc(N2C(=O)C(Cl)=C(C)C2O)nn1C (centres unmarked) [Compound B43]	5	2	5	4	4	1	5	4	4	5	5	2
